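Following 48 hours of exposure in 96-well plates, responses at five concentrations were used to interpolate endpoints linearly. TGI marks complete inhibition of growth.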
What was measured:
Assay in all cases: NCI tumour cell line growth inhibition, 48 h
786-0 renal = tested on: 786-0 renal
A498 renal = tested on: A498 renal
ACHN renal = tested on: ACHN renal
CAKI-1 renal = tested on: CAKI-1 renal
COLO 205 colon = tested on: COLO 205 colon
DMS 114 small cell lung = tested on: DMS 114 small cell lung
DMS 273 small cell lung = tested on: DMS 273 small cell lung
HCT-116 colon = tested on: HCT-116 colon
HCT-15 colon = tested on: HCT-15 colon
HOP-18 NSCLC = tested on: HOP-18 NSCLC
HOP-62 NSCLC = tested on: HOP-62 NSCLC
HOP-92 NSCLC = tested on: HOP-92 NSCLC
HT29 colon = tested on: HT29 colon
IGROV1 ovarian = tested on: IGROV1 ovarian
KM20L2 colon = tested on: KM20L2 colon
LOX IMVI melanoma = tested on: LOX IMVI melanoma
LXFL 529 NSCLC = tested on: LXFL 529 NSCLC
M14 melanoma = tested on: M14 melanoma
M19-MEL melanoma = tested on: M19-MEL melanoma
MOLT-4 leukemia = tested on: MOLT-4 leukemia
NCI-H23 lung = tested on: NCI-H23 lung
NCI-H460 lung = tested on: NCI-H460 lung
OVCAR-8 ovarian = tested on: OVCAR-8 ovarian
RXF 393 renal = tested on: RXF 393 renal
RXF-631 renal = tested on: RXF-631 renal
SF-268 CNS = tested on: SF-268 CNS
SF-295 CNS = tested on: SF-295 CNS
SF-539 CNS = tested on: SF-539 CNS
SK-MEL-28 melanoma = tested on: SK-MEL-28 melanoma
SK-OV-3 ovarian = tested on: SK-OV-3 ovarian
SN12C renal = tested on: SN12C renal
TK-10 renal = tested on: TK-10 renal
U251 CNS = tested on: U251 CNS
UACC-62 melanoma = tested on: UACC-62 melanoma
UO-31 renal = tested on: UO-31 renal
XF 498 CNS = tested on: XF 498 CNS
A549 NSCLC = tested on: A549 NSCLC
BT-549 breast = tested on: BT-549 breast
CCRF-CEM leukemia = tested on: CCRF-CEM leukemia
DLD-1 colon = tested on: DLD-1 colon
DU-145 prostate = tested on: DU-145 prostate
EKVX NSCLC = tested on: EKVX NSCLC
HCC-2998 colon = tested on: HCC-2998 colon
HL-60(TB) leukemia = tested on: HL-60(TB) leukemia
HS 578T breast = tested on: HS 578T breast
K-562 leukemia = tested on: K-562 leukemia
KM12 colon = tested on: KM12 colon
MALME-3M melanoma = tested on: MALME-3M melanoma
MCF7 breast = tested on: MCF7 breast
MDA-MB-231 breast = tested on: MDA-MB-231 breast
MDA-MB-435 = tested on: MDA-MB-435
MDA-N = tested on: MDA-N
NCI-H226 lung = tested on: NCI-H226 lung
NCI-H522 lung = tested on: NCI-H522 lung
NCI/ADR-RES ovarian = tested on: NCI/ADR-RES ovarian
OVCAR-3 ovarian = tested on: OVCAR-3 ovarian
OVCAR-4 ovarian = tested on: OVCAR-4 ovarian
OVCAR-5 ovarian = tested on: OVCAR-5 ovarian
PC-3 prostate = tested on: PC-3 prostate
RPMI-8226 leukemia = tested on: RPMI-8226 leukemia
SK-MEL-2 melanoma = tested on: SK-MEL-2 melanoma
SK-MEL-5 melanoma = tested on: SK-MEL-5 melanoma
SNB-19 CNS = tested on: SNB-19 CNS
SNB-75 CNS = tested on: SNB-75 CNS
SNB-78 CNS = tested on: SNB-78 CNS
SR leukemia = tested on: SR leukemia
SW-620 colon = tested on: SW-620 colon
T-47D breast = tested on: T-47D breast
UACC-257 melanoma = tested on: UACC-257 melanoma

In the case of `CCc1nc2ccccc2c(=O)n1/N=C(\N=Nc1ccc(Cl)cc1)c1ccccc1Cl`, the TGI (786-0 renal) is reported as greater than 100 µM, the TGI (A498 renal) is reported as greater than 100 µM and the TGI (ACHN renal) is reported as greater than 100 µM. For the same molecule, the TGI (CAKI-1 renal) was greater than 100 µM, the TGI (COLO 205 colon) was greater than 100 µM and the TGI (DMS 114 small cell lung) was 74.2 µM. The TGI (DMS 273 small cell lung) was greater than 100 µM, the TGI (HCT-116 colon) was greater than 100 µM and the TGI (HCT-15 colon) was greater than 100 µM. It also gave a TGI (HOP-18 NSCLC) greater than 100 µM, a TGI (HOP-62 NSCLC) greater than 100 µM and a TGI (HOP-92 NSCLC) of 64.9 µM. It also gave a TGI (HT29 colon) greater than 100 µM, a TGI (IGROV1 ovarian) greater than 100 µM and a TGI (KM20L2 colon) greater than 100 µM. For the same molecule, the TGI (LOX IMVI melanoma) was greater than 100 µM, the TGI (LXFL 529 NSCLC) was 85.3 µM and the TGI (M14 melanoma) was greater than 100 µM. For the same molecule, the TGI (M19-MEL melanoma) was greater than 100 µM, the TGI (MOLT-4 leukemia) was 96.4 µM and the TGI (NCI-H23 lung) was greater than 100 µM. For the same molecule, the TGI (NCI-H460 lung) was greater than 100 µM, the TGI (OVCAR-8 ovarian) was greater than 100 µM and the TGI (RXF 393 renal) was 72.5 µM. The TGI (RXF-631 renal) was greater than 100 µM, the TGI (SF-268 CNS) was greater than 100 µM and the TGI (SF-295 CNS) was greater than 100 µM. It also gave a TGI (SF-539 CNS) greater than 100 µM, a TGI (SK-MEL-28 melanoma) of 80.4 µM and a TGI (SK-OV-3 ovarian) greater than 100 µM. It also gave a TGI (SN12C renal) greater than 100 µM, a TGI (TK-10 renal) greater than 100 µM and a TGI (U251 CNS) greater than 100 µM. For the same molecule, the TGI (UACC-62 melanoma) was greater than 100 µM, the TGI (UO-31 renal) was 69.9 µM and the TGI (XF 498 CNS) was 71.6 µM.
With `CN(C)C(=S)SN(C)C(=O)Nc1ccccc1` the TGI (786-0 renal) was greater than 74.7 µM, the TGI (A498 renal) was greater than 33.8 µM and the TGI (A549 NSCLC) was greater than 100 µM. For the same molecule, the TGI (ACHN renal) was greater than 96.4 µM, the TGI (BT-549 breast) was greater than 100 µM and the TGI (CAKI-1 renal) was 60.5 µM. It also gave a TGI (CCRF-CEM leukemia) greater than 91.1 µM, a TGI (COLO 205 colon) greater than 100 µM and a TGI (DLD-1 colon) greater than 100 µM. For the same molecule, the TGI (DMS 114 small cell lung) was 27.4 µM, the TGI (DMS 273 small cell lung) was 77.6 µM and the TGI (DU-145 prostate) was greater than 100 µM. It also gave a TGI (EKVX NSCLC) greater than 100 µM, a TGI (HCC-2998 colon) greater than 62.9 µM and a TGI (HCT-116 colon) greater than 67.4 µM. For the same molecule, the TGI (HCT-15 colon) was greater than 85.3 µM, the TGI (HL-60(TB) leukemia) was greater than 71.7 µM and the TGI (HOP-62 NSCLC) was greater than 100 µM. For the same molecule, the TGI (HOP-92 NSCLC) was 22.2 µM, the TGI (HS 578T breast) was greater than 100 µM and the TGI (HT29 colon) was 24.4 µM. The TGI (IGROV1 ovarian) was greater than 100 µM, the TGI (K-562 leukemia) was greater than 100 µM and the TGI (KM12 colon) was 53.8 µM. For the same molecule, the TGI (KM20L2 colon) was greater than 100 µM, the TGI (LOX IMVI melanoma) was 44.7 µM and the TGI (LXFL 529 NSCLC) was greater than 100 µM. It also gave a TGI (M14 melanoma) of 47.9 µM, a TGI (M19-MEL melanoma) greater than 31.6 µM and a TGI (MALME-3M melanoma) of 50.3 µM. The TGI (MCF7 breast) was greater than 47.1 µM, the TGI (MDA-MB-231 breast) was greater than 100 µM and the TGI (MDA-MB-435) was greater than 72.5 µM. For the same molecule, the TGI (MDA-N) was 43.3 µM, the TGI (MOLT-4 leukemia) was 85.8 µM and the TGI (NCI-H226 lung) was greater than 92.4 µM. It also gave a TGI (NCI-H23 lung) greater than 80.5 µM, a TGI (NCI-H460 lung) greater than 53.7 µM and a TGI (NCI-H522 lung) of 3.5 µM. It also gave a TGI (NCI/ADR-RES ovarian) of 11.1 µM, a TGI (OVCAR-3 ovarian) of 41.2 µM and a TGI (OVCAR-4 ovarian) of 53.5 µM. The TGI (OVCAR-5 ovarian) was greater than 76 µM, the TGI (OVCAR-8 ovarian) was greater than 93.7 µM and the TGI (PC-3 prostate) was greater than 100 µM. The TGI (RPMI-8226 leukemia) was greater than 100 µM, the TGI (RXF 393 renal) was 6.31 µM and the TGI (RXF-631 renal) was greater than 100 µM. For the same molecule, the TGI (SF-268 CNS) was 99.9 µM, the TGI (SF-295 CNS) was greater than 100 µM and the TGI (SF-539 CNS) was greater than 81.1 µM. For the same molecule, the TGI (SK-MEL-2 melanoma) was greater than 100 µM, the TGI (SK-MEL-28 melanoma) was 53.6 µM and the TGI (SK-MEL-5 melanoma) was 46.4 µM. The TGI (SK-OV-3 ovarian) was greater than 100 µM, the TGI (SN12C renal) was 89.3 µM and the TGI (SNB-19 CNS) was greater than 100 µM. The TGI (SNB-75 CNS) was greater than 92.1 µM, the TGI (SNB-78 CNS) was greater than 100 µM and the TGI (SR leukemia) was 72.3 µM. It also gave a TGI (SW-620 colon) of 42.6 µM, a TGI (T-47D breast) of 99.1 µM and a TGI (TK-10 renal) greater than 100 µM. For the same molecule, the TGI (U251 CNS) was greater than 93.8 µM, the TGI (UACC-257 melanoma) was greater than 63.1 µM and the TGI (UACC-62 melanoma) was 19.1 µM. It also gave a TGI (UO-31 renal) greater than 94.7 µM.
